Inconclusive results and toxic doses are left out. The calls were made as follows: active = survival T/C of 150% or more; inactive = T/C below 125% in these data.
Test system: CD2F1 mice, L1210 leukemia ip, survival T/C
Assay: NCI In Vivo Anticancer Drug Screen. Data for tumor model L1210 Leukemia (intraperitoneal) in CD2F1 (CDF1) mice
Details: endpoint: mean survival time, higher = longer survival
Method in brief: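 Read-out first: treated-group measurement over vehicle-control measurement, expressed as a ratio. Animals bore a transplanted tumor line and were dosed with compound or vehicle.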

[1] = dose: 100.0 mg/kg/injection, schedule: Q01DX009 (ip), vehicle: saline with Tween-80
[2] = dose: 200.0 mg/kg/injection, schedule: Q01DX009 (ip), vehicle: saline with Tween-80
[3] = dose: 100.0 mg/kg/injection, schedule: Q04DX003 (ip), vehicle: saline with Tween-80
[4] = dose: 200.0 mg/kg/injection, schedule: Q04DX003 (ip), vehicle: saline with Tween-80
[5] = dose: 400.0 mg/kg/injection, schedule: Q04DX003 (ip), vehicle: saline with Tween-80

Measured: T/C

c1ccc([Si]2(c3ccccc3)c3ccccc3-c3ccccc32)cc1
inactive: [1] 94 % of control | [2] 99 % of control

CCCCOB(OCCCC)OCCCC
inactive: [3] 98 % of control | [4] 93 % of control | [5] 103 % of control

NC(=S)N/N=C1\c2cc(Cl)ccc2-c2c1cc(Cl)cc2[N+](=O)[O-]
inactive: dose: 50.0 mg/kg/injection, schedule: Q01DX001 (ip), vehicle: carboxymethylcellulose (CMC) 102 % of control | dose: 100.0 mg/kg/injection, schedule: Q01DX001 (ip), vehicle: carboxymethylcellulose (CMC) 102 % of control

NC(=O)c1[nH]cnc1/N=N/N(CCO)Cc1ccccc1
inactive: [3] 98 % of control | [4] 95 % of control | [5] 95 % of control

O=[N+]([O-])c1ccc(N2CCCCC2)c([N+](=O)[O-])c1
inactive: [1] 96 % of control | [2] 98 % of control | dose: 400.0 mg/kg/injection, schedule: Q01DX009 (ip), vehicle: saline with Tween-80 95 % of control

c1ccc(C2CC([P+](c3ccccc3)(c3ccccc3)c3ccccc3)=NN2)cc1 (configuration not stated)
inactive: dose: 2.7 mg/kg/injection, schedule: Q01DX009 (ip), vehicle: Klucel (hydroxypropylcellulose) (HPC) 110 % of control | dose: 4.1 mg/kg/injection, schedule: Q01DX009 (ip), vehicle: Klucel (hydroxypropylcellulose) (HPC) 112 % of control | dose: 5.5 mg/kg/injection, schedule: Q04DX003 (ip), vehicle: Klucel (hydroxypropylcellulose) (HPC) 106 % of control | dose: 6.25 mg/kg/injection, schedule: Q01DX009 (ip), vehicle: Klucel (hydroxypropylcellulose) (HPC) 108 % of control | dose: 8.2 mg/kg/injection, schedule: Q04DX003 (ip), vehicle: Klucel (hydroxypropylcellulose) (HPC) 106 % of control | dose: 9.3 mg/kg/injection, schedule: Q01DX009 (ip), vehicle: Klucel (hydroxypropylcellulose) (HPC) 110 % of control | dose: 11.0 mg/kg/injection, schedule: Q04DX002 (ip), vehicle: Klucel (hydroxypropylcellulose) (HPC) 102 % of control | dose: 12.5 mg/kg/injection, schedule: Q04DX003 (ip), vehicle: Klucel (hydroxypropylcellulose) (HPC) 104 % of control | dose: 14.0 mg/kg/injection, schedule: Q01DX009 (ip), vehicle: Klucel (hydroxypropylcellulose) (HPC) 102 % of control | dose: 16.0 mg/kg/injection, schedule: Q04DX002 (ip), vehicle: Klucel (hydroxypropylcellulose) (HPC) 95 % of control | dose: 18.0 mg/kg/injection, schedule: Q04DX003 (ip), vehicle: Klucel (hydroxypropylcellulose) (HPC) 108 % of control | dose: 22.0 mg/kg/injection, schedule: Q01DX001 (ip), vehicle: Klucel (hydroxypropylcellulose) (HPC) 104 % of control | dose: 25.0 mg/kg/injection, schedule: Q04DX002 (ip), vehicle: Klucel (hydroxypropylcellulose) (HPC) 102 % of control | dose: 28.0 mg/kg/injection, schedule: Q04DX003 (ip), vehicle: Klucel (hydroxypropylcellulose) (HPC) 108 % of control | dose: 35.0 mg/kg/injection, schedule: Q01DX001 (ip), vehicle: Klucel (hydroxypropylcellulose) (HPC) 110 % of control | dose: 35.0 mg/kg/injection, schedule: Q04DX002 (ip), vehicle: Klucel (hydroxypropylcellulose) (HPC) 96 % of control | dose: 55.0 mg/kg/injection, schedule: Q04DX002 (ip), vehicle: Klucel (hydroxypropylcellulose) (HPC) 104 % of control

CC(C)(CO)NC(=O)CC1CCCCC1
inactive: dose: 100.0 mg/kg/injection, schedule: Q01DX001 (ip), vehicle: saline with Tween-80 103 % of control | dose: 200.0 mg/kg/injection, schedule: Q01DX001 (ip), vehicle: saline with Tween-80 103 % of control | dose: 400.0 mg/kg/injection, schedule: Q01DX001 (ip), vehicle: saline with Tween-80 100 % of control

CC(=O)Nc1nn(C)c(C#N)c1C#N
inactive: dose: 37.5 mg/kg/injection, schedule: Q04DX002 (ip), vehicle: saline with Tween-80 106 % of control | dose: 75.0 mg/kg/injection, schedule: Q04DX002 (ip), vehicle: saline with Tween-80 106 % of control | dose: 150.0 mg/kg/injection, schedule: Q04DX002 (ip), vehicle: saline with Tween-80 102 % of control

c1ccc(CNc2ccccn2)cc1
inactive: [3] 97 % of control | [4] 97 % of control | [5] 95 % of control

O=c1[nH]cc(Br)c(=O)[nH]1
inactive: dose: 100.0 mg/kg/injection, schedule: Q04DX002 (ip), vehicle: saline with Tween-80 101 % of control | dose: 200.0 mg/kg/injection, schedule: Q04DX002 (ip), vehicle: saline with Tween-80 97 % of control | dose: 400.0 mg/kg/injection, schedule: Q04DX002 (ip), vehicle: saline with Tween-80 106 % of control

— PubChem BioAssay AID256 (DTP/NCI, 2004)
